# Patent publication US11878966B2, “Substituted 4-benzyl and 4-benzoyl piperidine derivates” (89BIO LTD, priority 2015, dated 2024)
# Biological target: T1, recombinant human baculovirus-expressed GST-tagged FASN (Homo sapiens, UniProt P49327)
# T1 construct: GST; host or cells: baculovirus expression system (insect cells implied)
# Test: FASN enzyme activity assay: fluorescence-based detection of CoA with CPM
# Assay type: biochemical
# Details: 5 nM FASN, 150 μM NADPH, 10 μM acetyl-CoA, 25 μM malonyl-CoA, 90 minutes incubation
# From the text: FASN Enzyme activity may be determined by detecting coenzyme A (CoA), a product of FASN-catalyzed synthesis of palmitate from acetyl-CoA and malonyl-CoA with NADPH as a cofactor. The assay is fluorescence-based and measures the interaction of free CoA with 7-diethylamino-3-(4′-malemimidylphenyl)-4-methylcoumarin (CPM; Life Technologies, CA) as described in Chung et al (2008). The coumarin derivative CPM contains a thiol-reactive maleimide that becomes fluorescent upon interaction with the sulfhydryl group of CoA.
# For the example compounds described herein, the reaction was performed in 384-well low volume non-binding platews (Corning, NY) using recombinant human baculovirus-expressed GST-tagged FASN. The 20-μL assay mixture contained 50 mM HEPES (pH 7.5), 5 nM FASN, 150 μM NADPH (Sigma, St. Louis, MO), 10 μM acetyl-CoA (Sigma), 25 μM malonyl-CoA (Sigma) and test compound [diluted in dimethyl sulfoxide (DMSO); 0.5% DMSO final in assay after 100 nL addition]. See, Chung et al.; “A fluorescence-based thiol quantification assay for ultra-high-throughput screening for inhibitors of coenzyme A production,” Assay Drug Dev Tech 2008; 6:361-374.
# The reaction was initiated by adding malonyl-CoA, followed by incubation for 90 minutes at […]. A stock solution of the CPM reagent was prepared in DMSO al 66 μM and stored at […]. To detect CoA produced in the FASN reaction, the CPM stock was diluted to 50 μM in 70% ethanol and added at 4 μL/well to the assay place. The reaction mixture was then incubated for 30 minutes. Fluorescence was measured using the EnVision™ 2102 multi-label plate reader (PerkinElmer, Waltham, MA) utilizing a general dual mirror, a 390 nm excitation filter and a 530 nm emission filter. Data analysis was performed using ActivityBase (IDBS, Guilford, UK). IC50 values were calculated by plotting the percent inhibition versus log 10 of the concentration of the compound, and fitting to the nonlinear regression sigmoidal dose-response (variable slope) equation in XLFit (IDBS).
# T1 sequence (P49327 whole entry): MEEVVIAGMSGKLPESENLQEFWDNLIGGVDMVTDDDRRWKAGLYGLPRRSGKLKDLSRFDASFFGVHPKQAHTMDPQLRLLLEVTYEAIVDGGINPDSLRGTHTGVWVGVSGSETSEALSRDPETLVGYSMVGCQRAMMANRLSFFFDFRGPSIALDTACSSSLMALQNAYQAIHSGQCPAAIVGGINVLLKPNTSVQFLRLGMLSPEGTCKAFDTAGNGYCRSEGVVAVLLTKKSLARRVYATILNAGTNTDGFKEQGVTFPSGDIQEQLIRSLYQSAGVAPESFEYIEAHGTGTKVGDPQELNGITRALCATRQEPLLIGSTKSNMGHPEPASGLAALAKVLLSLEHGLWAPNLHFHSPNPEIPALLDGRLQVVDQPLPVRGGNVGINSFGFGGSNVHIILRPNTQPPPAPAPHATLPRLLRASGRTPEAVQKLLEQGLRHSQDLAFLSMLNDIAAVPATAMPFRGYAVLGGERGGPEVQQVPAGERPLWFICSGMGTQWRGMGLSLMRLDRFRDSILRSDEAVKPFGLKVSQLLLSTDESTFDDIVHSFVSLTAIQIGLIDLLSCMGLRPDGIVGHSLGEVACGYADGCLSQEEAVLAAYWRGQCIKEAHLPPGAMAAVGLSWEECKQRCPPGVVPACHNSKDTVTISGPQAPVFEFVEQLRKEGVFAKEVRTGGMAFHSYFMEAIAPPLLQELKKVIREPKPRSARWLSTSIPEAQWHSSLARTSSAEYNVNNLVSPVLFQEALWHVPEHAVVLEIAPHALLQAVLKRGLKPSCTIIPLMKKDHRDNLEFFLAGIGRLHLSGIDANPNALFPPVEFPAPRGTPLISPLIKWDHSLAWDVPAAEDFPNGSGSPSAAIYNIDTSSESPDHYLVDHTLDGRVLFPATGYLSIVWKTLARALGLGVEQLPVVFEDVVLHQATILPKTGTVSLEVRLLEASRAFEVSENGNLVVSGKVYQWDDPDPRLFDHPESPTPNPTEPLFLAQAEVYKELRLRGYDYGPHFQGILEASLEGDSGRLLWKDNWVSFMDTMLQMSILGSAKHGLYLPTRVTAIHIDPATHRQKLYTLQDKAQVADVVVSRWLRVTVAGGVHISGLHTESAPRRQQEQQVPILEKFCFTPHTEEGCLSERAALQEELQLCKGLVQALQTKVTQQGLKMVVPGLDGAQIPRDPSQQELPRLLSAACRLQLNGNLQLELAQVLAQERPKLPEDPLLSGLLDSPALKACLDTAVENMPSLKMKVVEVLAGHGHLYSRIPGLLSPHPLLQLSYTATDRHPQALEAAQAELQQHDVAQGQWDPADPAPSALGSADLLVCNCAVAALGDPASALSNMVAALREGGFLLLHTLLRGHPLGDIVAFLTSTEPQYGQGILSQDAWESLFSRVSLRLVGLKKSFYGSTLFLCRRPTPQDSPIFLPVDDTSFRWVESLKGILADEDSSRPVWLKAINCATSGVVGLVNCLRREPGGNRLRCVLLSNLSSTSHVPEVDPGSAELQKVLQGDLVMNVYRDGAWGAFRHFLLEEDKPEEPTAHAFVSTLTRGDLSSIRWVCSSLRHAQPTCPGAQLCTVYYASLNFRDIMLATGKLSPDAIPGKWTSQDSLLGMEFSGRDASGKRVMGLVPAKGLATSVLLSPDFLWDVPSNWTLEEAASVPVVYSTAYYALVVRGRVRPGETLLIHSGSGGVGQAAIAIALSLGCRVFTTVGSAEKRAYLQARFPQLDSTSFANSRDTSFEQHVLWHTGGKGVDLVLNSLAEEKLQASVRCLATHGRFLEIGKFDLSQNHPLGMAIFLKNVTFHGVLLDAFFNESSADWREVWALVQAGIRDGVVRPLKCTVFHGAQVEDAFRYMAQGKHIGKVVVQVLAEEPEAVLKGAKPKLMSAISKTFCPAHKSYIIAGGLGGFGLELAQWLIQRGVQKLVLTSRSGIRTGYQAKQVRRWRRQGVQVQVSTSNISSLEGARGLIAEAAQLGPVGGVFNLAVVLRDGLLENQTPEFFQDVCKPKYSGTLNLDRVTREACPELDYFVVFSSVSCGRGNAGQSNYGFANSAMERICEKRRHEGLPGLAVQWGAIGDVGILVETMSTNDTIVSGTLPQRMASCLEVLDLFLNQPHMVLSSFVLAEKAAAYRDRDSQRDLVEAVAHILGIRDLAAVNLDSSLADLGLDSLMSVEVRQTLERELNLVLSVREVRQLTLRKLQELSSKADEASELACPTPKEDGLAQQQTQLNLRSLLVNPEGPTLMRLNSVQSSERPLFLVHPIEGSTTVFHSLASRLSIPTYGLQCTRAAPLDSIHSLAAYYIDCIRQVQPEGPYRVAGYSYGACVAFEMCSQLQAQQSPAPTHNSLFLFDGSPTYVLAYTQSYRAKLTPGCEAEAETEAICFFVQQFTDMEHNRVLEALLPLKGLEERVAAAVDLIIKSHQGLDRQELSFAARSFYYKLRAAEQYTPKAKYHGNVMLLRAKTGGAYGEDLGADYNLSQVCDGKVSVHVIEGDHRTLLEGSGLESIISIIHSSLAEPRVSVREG
row,SMILES,IC50 [nM]
1,"O=C(C1CC1)N1CC=C(Cc2ccc(-c3ccc4occc4c3)cc2)CC1 [Example 180, (4-(4-(benzofuran-5-yl)benzyl)-5,6-dihydropyridin-1(2H)-yl)(cyclopropyl)methanone]",1000 to 10000
2,"CCC(=O)N1CC=C(Cc2ccc(-c3cncc4ccccc34)cc2)CC1 [Example 168, 1-(4-(4-(isoquinolin-4-yl)benzyl)-5,6-dihydropyridin-1(2H)-yl)propan-1-one]",1000 to 10000
3,"COCCOC(c1ccc(-c2cnc3ccccc3c2C)cc1)C1CCN(C(=O)[C@H]2CCCO2)CC1 (stereo partly drawn) [Example 83, (4-{(2-Methoxyethoxy)-[4-(4-methyl-quinolin-3-yl)-phenyl]-methyl}-piperidin-1-yl)-(R)-tetrahydrofuran-2-yl-methanone]",1 to 99
4,"CCC(=O)N1CC[C@@H](Cc2ccc(-c3cnc4ccccc4c3)cc2)[C@@H](F)C1 (relative stereo) [Example 221, 1-[cis-3-Fluoro-4-(4-quinolin-3-yl-benzyl)-piperidin-1-yl]-propan-1-one]",1 to 99
5,"COC(C)(c1ccc(-c2cnc3ccccc3c2)cc1)C1CCN(C(=O)C2CC2)CC1 (stereo not shown) [Example 209, Cyclopropyl-{4-[1-methoxy-1-(4-quinolin-3-yl-phenyl)-ethyl]-piperidin-1-yl}-methanone]",1 to 99
6,"O=C(N1CCC(O)(Cc2ccc(-c3cc4ccccc4cn3)cc2)CC1)N1CCCO1 [Example 145, (4-hydroxy-4-(4-(isoquinolin-3-yl)benzyl)piperidin-1-yl)(isoxazolidin-2-yl)methanone]",1000 to 10000
7,"COCCOC(c1ccc(-c2ccc3c(C)nccc3c2)cc1)C1CCN(C(=O)[C@H]2CCCO2)CC1 (mixture of isomers) [Example 82, (4-{(2-Methoxyethoxy)-[4-(1-methylisoquinolin-6-yl)-phenyl]-methyl}-piperidin-1-yl)-(R)-tetrahydrofuran-2-yl-methanone]",1 to 99
8,"CONC(=O)N1CCC(Cc2ccc(-c3ccc4cccnc4c3C)cc2)CC1 [Example 231, N-methoxy-4-[[4-(8-methyl-7-quinolyl)phenyl]methyl]piperidine-1-carboxamide]",1 to 99
9,"CC(=O)N1CCC(C2(c3ccc(-c4ccc5ncccc5c4)cc3)OCCO2)CC1 [Example 106, 1-{4-[2-(4-Quinolin-6-yl-phenyl)-1,3-dioxolan-2-yl]-piperidin-1-yl}-ethanone]",1000 to 10000
10,"Cc1c(-c2ccc(CC3CCN(C(=O)C4CC(F)(F)C4)CC3)cc2)cnc2ccccc12 [Example 14, (3,3-Difluorocyclobutyl)-{4-[4-(4-methylquinolin-3-yl)-benzyl]-piperidin-1-yl}-methanone]",1000 to 10000
11,"CCC(=O)N1CCC(C(C)(OC)c2ccc(-c3cnc4ccccc4c3)cc2)CC1 (stereo not shown) [Example 208, 1-{4-[1-Methoxy-1-(4-quinolin-3-yl-phenyl)-ethyl]-piperidin-1-yl}-propan-1-one]",100 to 999
12,"COC(C)(c1ccc(-c2ccc3cccnc3c2)cc1)C1CCN(C(=O)C2CC2)CC1 (stereo not shown) [Example 213, Cyclopropyl-{4-[1-methoxy-1-(4-quinolin-7-yl-phenyl)-ethyl]-piperidin-1-yl}-methanone]",100 to 999
13,"CCC(=O)N1CCC(C(OCCCN2CCOCC2)c2ccc(-c3ccc4cccnc4c3C)cc2)CC1 (stereo not shown) [Example 85, 1-{4-[[4-(8-Methylquinolin-7-yl)-phenyl]-(3-morpholin-4-yl-propoxy)-methyl]-piperidin-1-yl}-propan-1-one]",1 to 99
14,"O=C(C1CC1)N1CCC(F)(Cc2ccc(-c3ccc4occc4c3)cc2)CC1 [Example 179, (4-(4-(benzofuran-5-yl)benzyl)-4-fluoropiperidin-1-yl)(cyclopropyl)methanone]",100 to 999
15,"CCOC(C)(c1ccc(-c2ccc3cccnc3c2)cc1)C1CCN(C(=O)CC)CC1 (stereo not shown) [Example 214, 1-{4-[1-Ethoxy-1-(4-quinolin-7-yl-phenyl)-ethyl]-piperidin-1-yl}-propan-1-one]",100 to 999
16,"Cc1nccc2cc(-c3ccc(C(OCCCN4CCOCC4)C4CCN(C(=O)[C@H]5CCCO5)CC4)cc3)ccc12 (stereo partly drawn) [Example 86, {4-[[4-(1-Methylisoquinolin-6-yl)-phenyl]-(3-morpholin-4-yl-propoxy)-methyl]-piperidin-1-yl}-(R)-tetrahydrofuran-2-yl-methanone]",100 to 999
17,"O=C([C@H]1CCCO1)N1CCC(F)(Cc2ccc(-c3ccc4cccnc4c3)cc2)CC1 [Example 187, (R)-(4-fluoro-4-(4-(quinolin-7-yl)benzyl)piperidin-1-yl)(tetrahydrofuran-2-yl)methanone]",1 to 99

row,SMILES,IC50 [nM]
1,"CCC(=O)N1CCC(C(=O)c2ccc(-c3ccc4cnccc4c3)cc2)C1 (stereo not shown) [Example 133, 1-[3-(4-Isoquinolin-6-yl-benzoyl)-pyrrolidin-1-yl]-propan-1-one]",1000 to 10000
2,"CCC(=O)N1CCC(Cc2ccc(-c3cnc4ccccc4c3)cc2)CC1 [Example 1, 1-[4-(4-Quinolin-3-yl-benzyl)-piperidin-1-yl]-propan-1-one]",1 to 99
3,"CCC(=O)N1CCC(C(C)c2ccc(-c3ccc4cccnc4c3OC)cc2)CC1 (stereo not shown) [Example 64, 1-(4-{1-[4-(8-Methoxyquinolin-7-yl)-phenyl]-ethyl}-piperidin-1-yl)-propan-1-one]",1 to 99
4,"CCC(=O)N1CCC(C(C)(C)c2ccc(-c3cnc4ccccc4c3)cc2)CC1 [Example 205, 1-(4-(2-(4-(quinolin-3-yl)phenyl)propan-2-yl)piperidin-1-yl)propan-1-one]",100 to 999
5,"CC(c1ccc(-c2ccc3cccnc3c2Cl)cc1)C1CCN(C(=O)[C@H]2CCCO2)CC1 (mixture of isomers) [Example 74, (4-{1-[4-(8-Chloroquinolin-7-yl)-phenyl]-ethyl}-piperidin-1-yl)-(R)-tetrahydrofuran-2-yl-methanone]",1 to 99
6,"O=C(C1CC1)N1CCC(F)(Cc2ccc(-c3cnc4ccccc4c3Cl)cc2)CC1 [Example 197, (4-(4-(4-Chloroquinolin-3-yl)benzyl)-4-fluoropiperidin-1-yl)(cyclopropyl)-methanone]",1 to 99
7,"CCC(=O)N1CCC(Cc2ccc(-c3ccc4cccnc4c3C)cc2)CC1 [Example 23, 1-{4-[4-(8-Methylquinolin-7-yl)-benzyl]-piperidin-1-yl}-propan-1-one]",1 to 99
8,"CCC(=O)N1CCC(C(CC)(OC)c2ccc(-c3cnc4ccccc4c3)cc2)CC1 (stereo not shown) [Example 210, 1-{4-[1-Methoxy-1-(4-quinolin-3-yl-phenyl)-propyl]-piperidin-1-yl}-propan-1-one]",1000 to 10000
9,"CCC(=O)N1CCC(C2(c3ccc(-c4ccc5cccnc5c4)cc3)OCCO2)CC1 [Example 114, 1-{4-[2-(4-Quinolin-7-yl-phenyl)-1,3-dioxolan-2-yl]-piperidin-1-yl}-propan-1-one]",100 to 999
10,"CCC(=O)N1CCC(C(F)c2ccc(-c3cnc4ccccc4c3)cc2)CC1 (stereo not shown) [Example 6, 1-{4-[Fluoro-(4-quinolin-3-yl-phenyl)-methyl]-piperidin-1-yl}-propan-1-one]",1 to 99
11,"CCC(=O)N1CC=C(Cc2ccc(-c3cnc4ccccc4c3Cl)cc2)CC1 [Example 194, 1-(4-(4-(4-Chloroquinolin-3-yl)benzyl)-3,6-dihydropyridin-1(2H)-yl)propan-1-one]",100 to 999
12,"CCC(=O)N1CCC(F)(Cc2ccc(-c3ccc4cccnc4c3)cc2)CC1 [Example 163, 1-(4-fluoro-4-(4-(quinolin-7-yl)benzyl)piperidin-1-yl)propan-1-one]",1 to 99
13,"Cc1c(-c2ccc(C(OCCCN3CCOCC3)C3CCN(C(=O)[C@H]4CCCO4)CC3)cc2)ccc2cccnc12 (stereo partly drawn) [Example 84, {4-[[4-(8-Methylquinolin-7-yl)-phenyl]-(3-morpholin-4-yl-propoxy)-methyl]-piperidin-1-yl}-(R)-tetrahydrofuran-2-yl-methanone]",1 to 99
14,"CCC(=O)N1CCC(Cc2ccc(-c3cnc4ccccc4c3C)cc2)CC1 [Example 12, 1-{4-[4-(4-Methylquinolin-3-yl)-benzyl]-piperidin-1-yl}-propan-1-one]",1 to 99
15,"CCC(=O)N1CCC(C(C)(O)c2ccc(-c3ccc4cnccc4c3)cc2)CC1 (stereo not shown) [Example 131, 1-{4-[1-Hydroxy-1-(4-isoquinolin-6-yl-phenyl)-ethyl]-piperidin-1-yl}-propan-1-one]",100 to 999
16,"CC(=O)N1CCC(C2(c3ccc(-c4ccc5ccncc5c4)cc3)OCCO2)CC1 [Example 115, 1-{4-[2-(4-Isoquinolin-7-yl-phenyl)-1,3-dioxolan-2-yl]-piperidin-1-yl}-ethanone]",1000 to 10000
17,"COCCOC(c1ccc(-c2ccc3cccnc3c2C)cc1)C1CCN(C(=O)[C@H]2CCCO2)CC1 (stereo partly drawn) [Example 80, (4-{(2-Methoxyethoxy)-[4-(8-methyl-quinolin-7-yl)-phenyl]-methyl}-piperidin-1-yl)-(R)-tetrahydrofuran-2-yl-methanone]",1 to 99
